Assay results taken from PubChem BioAssay AID504672 (Sanford-Burnham Center for Chemical Genomics, 2011).
Activity calls are given as the source filed them. No stated cut-off is given here; in the data, active means IC50 below about 71 µM; inactive means the rest.

system: S. cerevisiae tim10 strain, luminescence counterscreen; experiment: signal inhibition in TIM10 yeast counter-screen, dose response, counter-screen for tim23-1 inhibitor project, luminescence, S. cerevisiae, uHTS hits (AID 504672);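 further: yeast grew roughly 22 hours at 25 °C before the luminescence read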

C(=C\c1ccccc1)/C=N/Nc1nc2ccccc2[nH]1 and O=C(/C=C/c1ccccc1Cl)Nc1ccccc1 are within 1.5-fold of each other in IC50: 38.7 µM for the first, 44.7 µM for the second.

CC(C)(C)c1csc(NC(=O)c2ccc(Br)o2)n1 and O=C(Nc1nccs1)c1ccc(Cl)s1 are within 1.5-fold of each other in IC50: 16.7 µM for the first, 13.3 µM for the second.

Going from O=C(Nc1ccc(Oc2cccc3ccccc23)cc1)c1ccco1 to COc1cc(OC)cc(C(=O)Nc2ccc(Nc3ccccc3)cc2)c1, the IC50 rises from 8.83 µM to 27.3 µM (3.1-fold). The first is the more potent here.

COn1c(=O)c(-c2cccs2)[n+]([O-])c2ccccc21 and O=C1/C(=C/c2cccs2)COc2ccccc21 are within 1.5-fold of each other in IC50: 6.58 µM for the first, 7.66 µM for the second.

First: Fc1ccccc1-c1cc2cc3c(cc2cn1)OCO3
Second: O=C(Nc1ncc([N+](=O)[O-])s1)c1ccc2c(c1)OCO2
The IC50 of the first is 1.6-fold higher: 25 µM for the first, 15.8 µM for the second. The second is the more potent here.

Compared with Cc1ccc(SCC(=O)OCn2nnc3ccccc3c2=O)cc1C, CCOC(=O)c1c(-c2ccccc2)oc2ccc(O)cc12 is 1.5-fold lower in IC50: 15.6 µM for the first, 10.2 µM for the second. The second is the more potent here.

COc1ccc(NC(=O)Nc2nc3c(s2)CCCC3)cc1 and CCc1ccc(NC(=O)/C(C#N)=C/c2ccncc2)cc1 are within 1.5-fold of each other in IC50: 14.5 µM for the first, 12.6 µM for the second.

c1cnc2c(c1)ccc1cccnc12 and O=c1/c(=C/c2cccc3ccccc23)sc2ncnn12 are within 1.5-fold of each other in IC50: 12.3 µM for the first, 16.7 µM for the second.

First: COc1ccc(-c2cc(-c3ccccc3O)[nH]n2)cc1
Second: c1ccc(-c2ncc(-c3ccn[nH]3)s2)cc1
The IC50 of the first is 3.2-fold higher: 12.4 µM for the first, 3.88 µM for the second.

Compared with O=c1oc(Cl)c(Cl)c2ccccc12, O=c1cc(C(Cl)(Cl)Cl)oc2c1ccc1ccccc12 is 3.2-fold higher in IC50: 20.1 µM for the first, 63.8 µM for the second. The first is the more potent here.

O=C(CSc1ccccc1)N/N=C/c1ccccc1O and O=C(CC(=O)c1cc(Cl)ccc1O)c1ccccc1 are within 1.5-fold of each other in IC50: 10.9 µM for the first, 11.1 µM for the second.

COCCn1c(C)cc(C(=O)COC(=O)c2ccc([N+](=O)[O-])o2)c1C and Cc1cc(C(=O)CCl)c(C)n1CCc1ccc(Cl)cc1 are within 1.5-fold of each other in IC50: 8.28 µM for the first, 11 µM for the second.

Going from O=C(/C(=C/O)N=Nc1ccccc1)c1ccco1 to O=C(N/N=C/C(Cl)=C\c1ccccc1)c1cccs1, the IC50 rises from 11 µM to 59.1 µM (5.4-fold).

Going from CC(C)n1ncc2c(C(=O)NCC(=O)Nc3ccccc3Br)cc(C3CC3)nc21 to CC(C)OC(=O)c1cccnc1SCc1cc(=O)n2ccccc2n1, the IC50 rises from 27.8 µM to 42.4 µM (1.5-fold). The first is the more potent here.

First: COCCNC(=O)/C(C#N)=C/c1ccc(OCc2ccccc2)cc1
Second: N#C/C(=C\c1ccc(OCc2ccccc2)cc1)C(N)=O
The IC50 of the first is 1.7-fold lower: 16.6 µM for the first, 27.9 µM for the second.

Compared with Cc1cccc(C(=O)Oc2cccc3c(O)cccc23)c1, Cc1ccc(Nc2nc(-c3cccnc3)nc3ccccc23)cc1 is 8.1-fold higher in IC50: 8.12 µM for the first, 65.8 µM for the second.

Compared with C[C@@]12C(=O)Nc3ccc(Br)cc3C(=O)N1[C@H]1c3ccccc3OC[C@@H]1[C@@H]2c1ccccc1, COc1ccc(C(C[N+](=O)[O-])c2c(-c3ccccc3)cc3ccccn23)cc1OC (stereo not drawn) is 5.5-fold higher in IC50: 3.81 µM for the first, 21 µM for the second.

Going from CCOC(=O)c1c(C)oc2c(F)c(F)c(F)c(F)c2c1=O to CCOC(=O)c1c(N)sc(C(=O)Nc2ccccc2)c1C, the IC50 falls from 26.8 µM to 2.25 µM (12-fold).

Going from O=C(Nc1ccc(C(=O)N2CCCc3ccccc32)cc1)c1cccs1 to O=C(Nc1ccc2nc(-c3ccccc3)[nH]c2c1)c1cccs1, the IC50 falls from 15.2 µM to 3.08 µM (4.9-fold).

CC(C(Sc1ccccc1N)c1ccccc1)[N+](=O)[O-] (stereo not drawn) and Cn1c(C=O)c(C#Cc2ccccc2)c2ccccc21 are within 1.5-fold of each other in IC50: 5.26 µM for the first, 5.53 µM for the second.

Going from O=C(Nc1ccc2c(c1)OCCO2)c1cccc(Cl)c1 to CC(=O)Nc1cccc(-c2cc(-c3c(Cl)cccc3Cl)no2)c1, the IC50 falls from 21.5 µM to 8.63 µM (2.5-fold). The second is the more potent here.

Compared with CCCCCCn1c(=O)c(-c2ccccc2)c(O)c2ccccc21, c1ccc(Nc2nc(-c3ccccc3)nc3ccccc23)cc1 is 1.7-fold lower in IC50: 11.4 µM for the first, 6.7 µM for the second. The second is the more potent here.

Compared with C/C(=N\Nc1ccc([N+](=O)[O-])cc1)c1ccc(O)cc1, CCCC(=O)NC(c1ccc(C(C)C)cc1)c1ccc2cccnc2c1O (stereo not drawn) is 3.3-fold higher in IC50: 2.32 µM for the first, 7.76 µM for the second.

CC(C)c1nc(NCCO)c(C#N)c2c1CCCC2 and COc1ccc(S(=O)(=O)CC(=O)c2cc3cccc(C)c3oc2=O)cc1 are within 1.5-fold of each other in IC50: 18.5 µM for the first, 15.4 µM for the second.

First: Cn1c(-c2sc3ccccc3c2Cl)n[nH]c1=S
Second: Cc1ccc(-c2nc3ccccc3[nH]2)s1
The IC50 of the first is 2.9-fold lower: 5.74 µM for the first, 16.4 µM for the second.

O=CN(/C=C1\Sc2ccccc2C1=O)Cc1ccccc1 and O=C1c2ccccc2-c2n[nH]c3cccc1c23 are within 1.5-fold of each other in IC50: 15.5 µM for the first, 20.2 µM for the second.

Going from Cc1cc(=O)oc2c1c(C(F)(F)F)nn2-c1ccccc1 to CSC1=N/C(=C\c2ccc(C)cc2)C(=O)S1, the IC50 rises from 6.41 µM to 23.8 µM (3.7-fold).

Compared with Cc1nc2ccc(C(C(F)(F)F)(C(F)(F)F)C(F)(F)F)cc2[nH]1, Cn1c(/C(C#N)=C/c2ccncc2)nc2ccccc21 is 1.7-fold higher in IC50: 19.9 µM for the first, 34.3 µM for the second.

O=C(NCc1cccnc1)/C(=C\c1ccc(-c2ccc(Br)cc2)o1)S(=O)(=O)c1ccccc1 and O=C(CSc1cccc[n+]1[O-])CSc1cccc[n+]1[O-] are within 1.5-fold of each other in IC50: 5.72 µM for the first, 6.94 µM for the second.

Compared with CO/C(N)=C(\C#N)N=Cc1ccccc1Cl, CCSc1ncc(/C=N/Nc2ccc(Cl)cc2)n1C is 7.1-fold lower in IC50: 77.2 µM for the first, 10.9 µM for the second.

CC(=O)Nc1ncnc2c1c(-c1ccc(Cl)cc1)nn2C(C)(C)C showed an IC50 of 9.62 µM.

Cc1ccn2cc(C(=O)Nc3ccc4c(c3)OCCO4)nc2c1 was tested, and the IC50 was > 100 µM (inactive).
In the case of CCOC(=O)c1cccnc1SCc1cc(=O)n2ccccc2n1, the IC50 is reported as > 100 µM (inactive).
